Experiment: Half life in diluvial and volcanic ash soils under upland laboratory conditions
Format: physicochemical

Question: For `Cc1nn(C)c(Oc2ccccc2)c1/C=N/OCc1ccc(C(=O)OC(C)(C)C)cc1` [FENPYROXYMATE], which t1/2 is on record?
Answer: 26.3 days

Reference: ChEMBL document CHEMBL3045970, “Development of a New Acaricide, Fenpyroximate” (J Pestic Sci, 1995)
